The text below walks through data of patent US7407969B2, “Respiratory syncytial virus replication inhibitors” (Janssen Pharmaceutica, N.V., priority 1999, dated 2008).

Data set [1] in a line: Cytotoxicity (CC50) in mock-infected HeLa cells, tetrazolium (MTT) colorimetric assay. It is filed as cell-based. The following applies: human. As for the experimental part:
(§1) The percent protection against cytopathology caused by viruses (antiviral activity or IC50) achieved by tested compounds and their cytotoxicity (CC50) were both calculated from dose-response curves.
Automated tetrazolium-based […] assays were used for determination of IC50 and CC50 of test compounds. Flat-bottom, 96-well plastic microtiter trays were filled with 180 μl of Eagle's Basal Medium, supplemented with 5% FCS (0% for FLU) and 20 mM Herpes buffer. Subsequently, stock solutions (7.8×final test concentration) of compounds were added in 45 μl volumes to a series of triplicate wells so as to allow simultaneous evaluation of their effects on virus- and mock-infected cells. Five five-fold dilutions were made directly in the microtiter trays using a robot system. Untreated virus controls, and HeLa cell controls were included in each test. Approximately 100 TCID50 Respiratory Syncytial Virus was added to two of the three rows in a volume of 50 μl. The same volume of medium was added to the third row to measure the cytotoxicity of the compounds at the same concentrations as those used to measure the antiviral activity. After two hours of incubation, a suspension (4×10^5 cells/ml) of HeLa cells was added to all wells in a volume of 50 μl. The cultures were incubated at 37° C. in a 5% CO2 atmosphere. Seven days after infection the cytotoxicity and the antiviral activity was examined spectrophotometrically. To each well of the microtiter tray, 25 μl of a solution of MIT (3-(4,5-dimethylthiazol-2-yl)-2,5-diphenyltetrazolium bromide) was added. The trays were further incubated at 37° C. for 2 hours, after which the medium was removed from each cup. Solubilization of the formazan crystals was achieved by adding 100 μl 2-propanol. […] Finally, the absorbances were read in an eight-channel computer-controlled photometer (Multiskan MCC, Flow Laboratories) at two wavelengths (540 and 690 nm). The absorbance measured at 690 nm was automatically subtracted from the absorbance at 540 nm, so as to eliminate the effects of non-specific absorption.

The test system of data set [2] is Respiratory Syncytial Virus. Put plainly: microbe, parasite or virus in culture. It is filed as cell-based. The following applies: for SI: selectivity index = CC50 divided by IC50. As for the experimental part:
as §1
Automated tetrazolium-based […] assays were used for determination of IC50 and CC50 of test compounds. Flat-bottom, 96-well plastic microtiter trays were filled with 180 μl of Eagle's Basal Medium, supplemented with 5% FCS (0% for FLU) and 20 mM Herpes buffer. Subsequently, stock solutions (7.8×final test concentration) of compounds were added in 45 μl volumes to a series of triplicate wells so as to allow simultaneous evaluation of their effects on virus- and mock-infected cells. Five five-fold dilutions were made directly in the microtiter trays using a robot system. Untreated virus controls, and HeLa cell controls were included in each test. Approximately 100 TCID50 Respiratory Syncytial Virus was added to two of the three rows in a volume of 50 μl. The same volume of medium was added to the third row to measure the cytotoxicity of the compounds at the same concentrations as those used to measure the antiviral activity. After two hours of incubation, a suspension (4×10^5 cells/ml) of HeLa cells was added to all wells in a volume of 50 μl. The cultures were incubated at 37° C. in a 5% CO2 atmosphere. Seven days after infection the cytotoxicity and the antiviral activity was examined spectrophotometrically. To each well of the microtiter tray, 25 μl of a solution of MIT (3-(4,5-dimethylthiazol-2-yl)-2,5-diphenyltetrazolium bromide) was added. The trays were further incubated at 37° C. for 2 hours, after which the medium was removed from each cup. Solubilization of the formazan crystals was achieved by adding 100 μl 2-propanol. Complete dissolution of the formazan crystals were obtained after the trays have been placed on a plate shaker for 10 min. Finally, the absorbances were read in an eight-channel computer-controlled photometer (Multiskan MCC, Flow Laboratories) at two wavelengths (540 and 690 nm). The absorbance measured at 690 nm was automatically subtracted from the absorbance at 540 nm, so as to eliminate the effects of non-specific absorption.

Where [3] appears, read: human respiratory syncytial virus, HeLa, 168 h.

Read-outs that look alike come from different tables or passages of the source.

Turning to `NCCN1CCC(Nc2nc3ccccc3n2Cc2ccnc3ccccc23)CC1`, the melting point (usually the temperature, or range, at which the solid turns liquid) was found to be 196 °C.

`CCOC(c1cccc2cccnc12)n1c(NC2CCN(C(CN)C(C)C)CC2)nc2ccccc21` (racemic) gave a melting point of 202 °C.

In turn, `CC(C)C(N)CN1CCC(Nc2nc3ccccc3n2CC2CCc3ccccc3N2)CC1.Cl.Cl.Cl.Cl.O` (racemic) (hydrate or solvate) returned a melting point of 230 °C.

Regarding `CC(C)C(N)CN1CCC(Nc2nc3ccccc3n2Cc2ccc3ccccc3n2)CC1` (racemic) [Compound 6, (±)-N-[1-(2-amino-3-methylbutyl)-4-piperidinyl]-1-(2-quinolinylmethyl)-1H-benzimidazol-2-amine], the melting point is 135 °C. The CC50 (as a rule, the concentration giving 50% cytotoxicity) at 7 days in data set [1] was found to be 10 µM. Also, in data set [2] (human respiratory syncytial virus, 168 h, antiviral activity against Respiratory Syncytial Virus, HeLa cells, 7 days after infection, MTT, read-out: IC50), the concentration for half-maximal inhibition (IC50) (usually the point on the concentration scale where inhibition reaches its midpoint) is 0.0126 µM. In addition, in data set [2], the SI is recorded as 794.

In data set [1], `CCOCCOC(c1cccc2cccnc12)n1c(NC2CCN(CC(N)C(C)C)CC2)nc2ccccc21` (racemic) [Compound 31, (±)-N-[1-(2-amino-3-methylbutyl)-4-piperidinyl]-1-[(2-ethoxyethoxy)-8-quinolinyl-methyl]-1H-benzimidazol-2-amine] had a CC50 at 7 days of 12.7 µM. The compound further returned an IC50 in data set [2] (setting [3]) of 0.0008 µM. The compound also gave an SI in data set [2] of 15849.

As for `CC(C)C(N)CN1CCC(Nc2nc3ccccc3n2C2CCCc3ccc(Br)nc32)CC1.Cl.Cl.Cl.O.O.O` (racemic) [Compound 56, (±)-N-[1-(2-amino-3-methylbutyl)-4-piperidinyl]-1-(2-bromo-5,6,7,8-tetrahydro-8-quinolinyl)-1H-benzimidazol-2-amine trihydrochloride trihydrate], the CC50 at 7 days in data set [1] (cytotoxicity in mock-infected HeLa cells, 7 days, MTT, read-out: CC50) is 12.7 µM. Besides, the IC50 in data set [2] (setting [3]) was found to be 0.0016 µM. The compound also displayed an SI in data set [2] of 7943.

Turning to “(±)-N-[1-(2-amino-3-methylbutyl)-4-piperidinyl]-3-(quinolinylmethyl)-3H-imidazo[4,5-b]pyridin-2-amine [Compound 42]”, the IC50 in data set [2] (antiviral activity against Respiratory Syncytial Virus, HeLa cells, 7 days after infection, MTT, read-out: IC50) is 0.0004 µM. The SI in data set [2] is listed as greater than 25119.
